According to patent publication US20090215758A1, “Use of 2,5-Disubstituted Thiazol-4-One Derivatives in Drugs” (Gruenenthal GmbH, priority 2005, published 2009):
pEC50: −log10 of the molar value. Counter-ions that a name gives are not always drawn.

How the values were obtained:
[1] = target: T1, vanilloid receptor 1 (VR1/TRPV1) of the rat species (Rattus norvegicus, UniProt O35433); assay: Functional study on vanilloid receptor 1, FLIPR Ca2+ assay in rat dorsal root ganglia cells; format: cell-based; details: for inhibition at 10 µM / activation at 10 µM / VR1 (rat) (% inhibition compared to 10 μM CP) / VR1 (rat) (% stimulation compared to 10 μM CP): test compound 10 μM; for inhibition at 10 µM / VR1 (rat) (% inhibition compared to 10 μM CP): 5 min incubation, then 100 nM capsaicin, relative to maximum inhibition with 10 μM capsaicin; for inhibition at 10 µM: read-out: VR1 (rat) (% inhibition compared to 10 μM CP); for activation at 10 µM / VR1 (rat) (% stimulation compared to 10 μM CP): Ca2+ signal relative to 10 μM capsaicin (CP); for activation at 10 µM: read-out: VR1 (rat) (% stimulation compared to 10 μM CP); for pEC50: unit inferred
T1 construct: The spinal column is removed from beheaded rats; from tissue; host or cells: primary cells from rat dorsal root ganglia (DRGs)
Description: The agonistic or antagonistic action of the substances to be studied on the vanilloid receptor 1 (VR1/TRPV1) of the rat species can be determined with the following assay. In this assay, the Ca^2+ current through the receptor channel is quantified with the aid of a Ca^2+-sensitive dye (Fluo-4 type, Molecular Probes Europe BV, Leiden the Netherlands) in a fluorescent imaging plate reader (FLIPR, Molecular Devices, Sunnyvale, USA).
Complete medium: 50 ml HAMS F12 Nutrient Mixture (Gibco Invitrogen GmbH, Karlsruhe, Germany) with 10% by volume of FCS (fetal calf serum, Gibco Invitrogen GmbH, Karlsruhe, Germany, heat-inactivated);
2 mM L-glutamine (Sigma, Munich, Germany);
1% by weight of AA solution (antibiotic/antimycotic solution, PAA, Pasching, Austria) and 25 ng/ml of NGF medium (2.5 S, Gibco Invitrogen GmbH, Karlsruhe, Germany)
Cell culture plate: poly-D-lysine-coated, black 96-hole plates with a clear bottom (96 well black/clear plate, BD Biosciences, Heidelberg, Germany) are additionally coated with laminin (Gibco Invitrogen GmbH, Karlsruhe, Germany) by diluting laminin to a concentration of 100 μg/ml with PBS (Ca—Mg-free PBS, Gibco Invitrogen GmbH, Karlsruhe, Germany). Aliquots having a concentration of 100 μg/ml of laminin are withdrawn and stored at −20° C. The aliquots are diluted with PBS in a ratio of 1:10 to 10 μg/ml of laminin and in each case 50 μl of the solution are pipetted into a well of the cell culture plate. The cell culture plates are incubated at 37° C. for at least two hours, the supernatant solution is removed by suction and the wells are each washed twice with PBS. The coated cell culture plates are stored with supernatant PBS which is not removed until directly before the application of the cells.
The spinal column is removed from beheaded rats and placed directly into cold HBSS buffer (Hank's buffered saline solution, Gibco Invitrogen GmbH, Karlsruhe, Germany), i.e. placed in an ice bath, which has been admixed with 1% by volume of an AA solution (antibiotic/antimycotic solution, PAA, Pasching, Austria). The spinal column is severed longitudinally and removed from the spinal canal together with fasciae. Subsequently, the dorsal root ganglia (DRGs) are removed and in turn stored in cold HBSS buffer admixed with 1% by volume of an AA solution. The DRGs freed completely of blood residues and spinal nerves are in each case transferred to 500 μl of cold type 2 collagenase (PAA, Pasching, Austria) and incubated at 37° C. for 35 minutes. […] After complete incubation, the enzyme solution is cautiously pipetted off and the remaining DRGs are each suspended with 500 μl of complete medium.
The DRGs are each suspended repeatedly, drawn through cannulas No. 1, No. 12 and No. 16 by means of a syringe and transferred to 50 ml Falcon tubes which are made up to 15 ml with complete medium. The contents of each Falcon tube are in each case filtered through a 70 μm Falcon filter insert and centrifuged at 1200 revolutions and room temperature for 10 minutes. The resulting pellet is in each case taken up in 250 μl of complete medium and the cell count is determined.
The number of cells in the suspension is adjusted to 3 times 10^5 per ml and in each case 150 μl of this suspension are added to one well of the cell culture plates coated as described above.
Subsequently, the cells are laden with 2 μM Fluo-4 and 0.01% by volume of Pluronic F127 (Molecular Probes Europe BV, Leiden, the Netherlands) in HBSS buffer (Hank's buffered saline solution, Gibco Invitrogen GmbH, Karlsruhe, Germany) at 37° C. for 30 min, washed 3× with HBSS buffer and, after a further incubation of 15 minutes, used in the FLIPR assay at room temperature for Ca^2+ measurement. The Ca^2+-dependent fluorescence is measured before and after addition of substances (λex=488 nm, λem=540 nm). The quantification is effected by the measurement of the highest fluorescence intensity (FC, fluorescence counts) over the time.

[2] = target: T2, VR1 (human) (Homo sapiens, UniProt Q8NER1); assay: Functional study on vanilloid receptor (VR1), FLIPR Ca2+ assay in CHO K1 cells stably transfected with the VR1 gene; format: cell-based; details: for inhibition at 10 µM / activation at 10 µM: CHO-K1, test compound 10 μM; for inhibition at 10 µM / VR1 (human) (% inhibition compared to 10 μM CP): 5 min incubation, then 100 nM capsaicin, compared to 10 μM CP; for activation at 10 µM / VR1 (human) (% stimulation compared to 10 μM CP): Ca2+ signal relative to 10 μM capsaicin (CP); for activation at 10 µM: read-out: VR1 (human) (% stimulation compared to 10 μM CP); for VR1 (human) (% inhibition compared to 10 μM CP) / VR1 (human) (% stimulation compared to 10 μM CP): test compound 10 μM; for pEC50: unit inferred
T2 construct: expressed in transfected cells; host or cells: CHO K1 cells (ECACC), stably transfected
From the text: The agonistic or antagonistic action of the substances to be tested on vanilloid receptor (VR1) can also be determined with the assay which follows. In this assay, the Ca^2+ current through the channel is quantified with the aid of a Ca^2+-sensitive dye (Fluo-4 type, Molecular Probes, Europe BV, Leiden, the Netherlands) in a fluorescent imaging plate reader (FLIPR, Molecular Devices, Sunnyvale, USA).
Chinese hamster ovary cells (CHO K1 cells, European Collection of Cell Cultures (ECACC) Great Britain) are transfected stably with the VR1 gene. For functional studies, these cells are plated out onto poly-D-lysine-coated black 96-well plates with a clear bottom (BD Biosciences, Heidelberg, Germany) in a density of 25 000 cells/well. The cells are incubated overnight at 37° C. and 5% CO2 in a culture medium (Ham's Nutrient Mixture F12, 10% by volume of FCS (fetal calf serum), 18 μg/ml of L-proline). The next day, the cells are incubated with Fluo-4 (Fluo-4 2 μM, Pluronic F127 0.01% by volume, Molecular Probes in HBSS (Hank's buffered saline solution), Gibco Invitrogen GmbH, Karlsruhe, Germany) at 37° C. for 30 minutes. Subsequently, the plates are washed 3 times with HBSS buffer and, after a further incubation of 15 minutes at room temperature, used for Ca^2+ measurement in FLIPR. The Ca^2+-dependent fluorescence is measured before and after addition of the substances to be studied (wavelength λex=488 nm, λem=540 nm). The quantification is effected by measuring the highest fluorescence intensity (FC, fluorescence counts) over the time.
The FLIPR protocol consists of 2 substance additions. First, the substances to be tested (10 μM) are pipetted onto the cells and the Ca current is compared with the control (capsaicin 10 μM) (% activation based on the Ca^2+ signal after addition of 10 μM capsaicin). After incubation for 5 minutes, 100 nM capsaicin is applied and the current of Ca^2+ is likewise determined.

T2 sequence (Q8NER1 whole entry): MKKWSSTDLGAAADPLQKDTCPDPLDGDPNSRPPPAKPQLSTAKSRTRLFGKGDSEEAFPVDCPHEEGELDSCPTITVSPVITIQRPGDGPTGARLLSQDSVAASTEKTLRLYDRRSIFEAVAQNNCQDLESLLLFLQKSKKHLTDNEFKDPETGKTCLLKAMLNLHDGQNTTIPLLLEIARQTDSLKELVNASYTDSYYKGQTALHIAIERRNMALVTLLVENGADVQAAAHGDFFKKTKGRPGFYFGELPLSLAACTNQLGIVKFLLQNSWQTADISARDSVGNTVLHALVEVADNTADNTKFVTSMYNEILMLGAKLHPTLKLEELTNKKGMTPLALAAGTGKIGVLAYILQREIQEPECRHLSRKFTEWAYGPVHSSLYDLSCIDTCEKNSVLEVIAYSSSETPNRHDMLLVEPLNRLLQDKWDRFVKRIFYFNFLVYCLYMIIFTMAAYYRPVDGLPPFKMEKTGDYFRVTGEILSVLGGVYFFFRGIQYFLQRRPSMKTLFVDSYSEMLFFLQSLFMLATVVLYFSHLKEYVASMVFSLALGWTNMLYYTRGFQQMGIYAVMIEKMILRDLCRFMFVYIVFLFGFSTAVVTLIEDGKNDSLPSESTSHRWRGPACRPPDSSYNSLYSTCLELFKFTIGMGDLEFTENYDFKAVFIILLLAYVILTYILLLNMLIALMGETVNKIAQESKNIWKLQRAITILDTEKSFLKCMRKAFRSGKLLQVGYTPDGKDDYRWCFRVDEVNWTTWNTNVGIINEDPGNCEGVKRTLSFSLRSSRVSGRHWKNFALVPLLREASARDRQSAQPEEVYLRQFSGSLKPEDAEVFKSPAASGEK
T1 sequence (O35433 whole entry): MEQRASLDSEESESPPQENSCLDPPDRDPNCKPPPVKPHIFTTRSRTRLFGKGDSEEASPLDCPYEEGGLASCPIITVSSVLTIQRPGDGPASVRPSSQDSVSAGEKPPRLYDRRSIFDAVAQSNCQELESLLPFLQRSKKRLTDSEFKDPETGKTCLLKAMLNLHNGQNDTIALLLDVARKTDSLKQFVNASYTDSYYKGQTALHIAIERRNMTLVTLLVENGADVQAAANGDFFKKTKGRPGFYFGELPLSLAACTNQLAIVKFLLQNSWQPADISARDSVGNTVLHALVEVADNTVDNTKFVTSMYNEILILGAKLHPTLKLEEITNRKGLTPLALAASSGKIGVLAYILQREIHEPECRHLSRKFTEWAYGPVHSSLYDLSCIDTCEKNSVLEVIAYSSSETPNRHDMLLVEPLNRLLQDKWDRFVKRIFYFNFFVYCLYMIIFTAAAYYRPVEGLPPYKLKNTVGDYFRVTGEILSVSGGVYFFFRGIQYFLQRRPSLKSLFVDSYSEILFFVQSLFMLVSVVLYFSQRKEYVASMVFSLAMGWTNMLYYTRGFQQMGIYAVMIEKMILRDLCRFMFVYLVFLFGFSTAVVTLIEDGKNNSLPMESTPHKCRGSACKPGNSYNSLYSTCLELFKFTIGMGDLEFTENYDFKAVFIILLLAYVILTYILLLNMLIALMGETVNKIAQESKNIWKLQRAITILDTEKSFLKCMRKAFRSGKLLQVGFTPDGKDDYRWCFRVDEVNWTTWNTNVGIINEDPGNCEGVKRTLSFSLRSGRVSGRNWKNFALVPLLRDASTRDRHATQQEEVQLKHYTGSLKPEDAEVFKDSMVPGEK

inhibition at 10 µM [1] | activation at 10 µM [1] | inhibition at 10 µM [2] | activation at 10 µM [2] | VR1 (human) (% inhibition compared to 10 μM CP) [2] | VR1 (rat) (% inhibition compared to 10 μM CP) [1] | VR1 (rat) (% stimulation compared to 10 μM CP) [1] | VR1 (human) (% stimulation compared to 10 μM CP) [2] | pEC50 [1] | pEC50 [2] | SMILES
17% | 2.5% | 47.2% | 2.43% |  |  |  |  |  |  | Cc1ccc(N2CCN(C3=NC(=O)C(=CC=Cc4ccccc4)S3)CC2)nn1 [Example 161, 2-[4-(6-methylpyridazin-3-yl)piperazin-1-yl]-5-(3-phenylallylidene)thiazol-4-one]
97.5% | 44.7% |  | 14.5% | 35.32% |  |  |  |  |  | Br.Cc1ccc(C=C2SC(N3CCOCC3)=NC2=O)cc1 [Example 176, 5-(4-methylbenzylidene)-2-morpholin-4-ylthiazol-4-one hydrobromide]
 |  |  |  | 30.72% | 38.36% | 41.89% | 5.04% |  |  | Br.CC(C)c1ccc(C=C2SC(N3CCOCC3)=NC2=O)cc1 [Example 179, 5-(4-isopropylbenzylidene)-2-morpholin-4-ylthiazol-4-one hydrobromide]
5.61% | 6.64% | 8.14% | 11.2% |  |  |  |  | < 4.60 | < 4.30 | O=C1N=C(N2CCOCC2)SC1=CC=Cc1ccccc1 [Example 189, 2-morpholin-4-yl-5-(3-phenylallylidene)thiazol-4-one hydrobromide]
 |  |  |  | 32.35% | 83.13% | 51.35% | 34.09% | 4.85 | < 4.60 | Br.O=C1N=C(N2CCSCC2)SC1=CC=Cc1ccccc1 [Example 190, 5-(3-phenylallylidene)-2-thiomorpholin-4-ylthiazol-4-one hydrobromide]
17.6% | -0.17% | 8.04% | 15.8% |  |  |  |  | < 4.60 | < 4.30 | O=C1N=C(N2CCCCC2)SC1=CC=Cc1ccccc1 [Example 191, 5-(3-phenylallylidene)-2-piperidin-1-ylthiazol-4-one hydrobromide]
2.18% | 1.34% | 10.3% | 16.7% |  |  |  |  | < 4.30 | < 4.30 | O=C1N=C(N2CCCCCC2)SC1=CC=Cc1ccccc1 [Example 192, 2-azepan-1-yl-5-(3-phenylallylidene)thiazol-4-one hydrobromide]
96.1% | 94.3% | 90.3% | 80.3% |  |  |  |  | 5.66 | 5.23 | O=C1N=C(N2CCSCC2)SC1=Cc1cccc(C(F)(F)F)c1 [Example 195, 2-thiomorpholin-4-yl-5-(3-trifluoromethylbenzylidene)thiazol-4-one hydrobromide]
94.3% |  | 72.4% | 48% |  |  | 63.86% |  |  |  | CC(C)(C)c1ccc(C=C2SC(N3CCOCC3)=NC2=O)cc1 [Example 197, 5-(4-tert-butylbenzylidene)-2-morpholin-4-ylthiazol-4-one]
97.6% | 60.7% | 76.7% | 54.3% |  |  |  |  | 5.95 | 5.99 | CC(C)(C)c1ccc(C=C2SC(N3CCSCC3)=NC2=O)cc1 [Example 198, 5-(4-tert-butylbenzylidene)-2-thiomorpholin-4-ylthiazol-4-one hydrobromide]
46.2% | 31.4% | 2.12% | 17.5% |  |  |  |  | < 4.60 | < 4.60 | CC(C)(C)c1ccc(C=C2SC(N3CCCCCC3)=NC2=O)cc1 [Example 200, 2-azepan-1-yl-5-(4-tert-butylbenzylidene)thiazol-4-one hydrobromide]
96.4% | 79.6% | 103% | 68.2% |  |  |  |  |  |  | O=C1N=C(N2CCOCC2)SC1=Cc1cccc(C(F)(F)F)c1 [Example 205, 2-morpholin-4-yl-5-(3-trifluoromethylbenzylidene)thiazol-4-one hydrobromide]
 |  |  |  | 95.06% | 102.30% | 76.51% | 77.26% |  |  | O=C1N=C(N2CCOCC2)SC1=Cc1cccc(C(F)(F)F)c1 [Example 206, 2-morpholin-4-yl-5-(3-trifluoromethylbenzylidene)thiazol-4-one]
34.7% | 40% | 5.47% | 9.44% |  |  |  |  | 4.83 | 4.55 | O=C1N=C(N2CCOCC2)SC1=Cc1cccc2ccccc12 [Example 209, 2-morpholin-4-yl-5-naphthalen-1-ylmethylenethiazol-4-one]

SMILES | inhibition at 10 µM [1] | activation at 10 µM [1] | inhibition at 10 µM [2] | activation at 10 µM [2] | VR1 (human) (% inhibition compared to 10 μM CP) [2] | VR1 (rat) (% inhibition compared to 10 μM CP) [1] | VR1 (rat) (% stimulation compared to 10 μM CP) [1] | VR1 (human) (% stimulation compared to 10 μM CP) [2] | pEC50 [1] | pEC50 [2]
CC(C)(C)c1ccc(C=C2SC(N3CCCC3)=NC2=O)cc1 [Example 199, 5-(4-tert-butylbenzylidene)-2-pyrrolidin-1-ylthiazol-4-one hydrobromide] | 69.5% | 42.9% | 4.43% | 9.64% |  |  |  |  |  | 
